Results published in PMC4776139, “Extended string-like binding of the phosphorylated HP1α N-terminal tail to the lysine 9-methylated histone H3 tail” (Scientific Reports, 2016).

Assays:
[1] = test system: H3K9me peptide (22-mer, amino acids 1–21 of histone H3 with a C-terminal tyrosine); assay: Isothermal titration calorimetry (ITC) of HP1α chromodomain constructs with H3K9me peptide; format: binding; conditions: for ΔS (entropy change) / Ka / ΔH (enthalpy change) / Kd: 20 °C; for ΔS (entropy change): calculated from Kd and ΔH; for Ka / ΔH (enthalpy change): pH 6.80, one-site binding model; for Kd: 20 mM KPB (pH 6.80), 10 mM NaCl; for fold weaker binding to H3K9me as compared with NCD^Δ1–9: relative to NCD^Δ1–9; for fold stronger binding to H3K9me than the CD alone: relative to CD (NCD^Δ1–19); for times more strongly bound H3K9me than the CD: relative to CD
Method: Protein solution (40 μM) was loaded into a VP-ITC isothermal titration calorimeter (Microcal, INC.) cell (active cell volume 1.4 ml). The solution was titrated against 400 μM ligand solution via a 250 μl titration syringe. Experiments were carried out at 20 °C. The ligand solution was prepared in the same buffer as the protein (20 mM KPB (pH 6.80), 10 mM NaCl). The heat of dilution generated by the ligand was subtracted, and the binding isotherms were fitted to a one-site binding model by using Origin 7 Software (Microcal, INC.). From the values of Kd and ΔH, the thermodynamic parameters, ΔG and ΔS were calculated according to the basic thermodynamic equations;

[2] = Small angle X-ray scattering (SAXS); format: physicochemical; conditions: for association state, in words: SAXS at 5, 10 and 15 mg/ml, no scattering from aggregated protein; for association state, in words / Dmax (maximum particle dimension): pH 6.8, 20 °C; for Rg (radius of gyration) / Estimated molecular weight (association state) / Dmax (maximum particle dimension): SAXS; for Rg (radius of gyration): Guinier plot; for Estimated molecular weight (association state): from I(0)/c compared to hen egg white lysozyme; for Dmax (maximum particle dimension): from P(r) function (GNOM); on Dmax (maximum particle dimension): values in Å; on Rg (radius of gyration): values in Å
Method: To confirm the structural differences between unmod-NCD and phos-NCD, small angle X-ray scattering (SAXS) experiments were carried out on CD, unmod-NCD, and phos-NCD. To check inter-particle interference, SAXS data were collect at three different protein concentrations, 5, 10 and 15 mg/ml (Supplementary Fig. S4). The radius of gyration Rg, and the estimated molecular weight from the forward scattering intensity I(0), of CD, unmod-NCD, and phos-NCD are summarized in Fig. 3. […] The Rg value of the CD at the three different protein concentrations was estimated as 14.0 ± 0.3, 13.8 ± 0.3 and 13.7 ± 0.2 Å, which are close to the Rg value calculated from the NMR structure of the CD (15.0 Å).
We converted the scattering profiles at 5 mg/ml to the P(r) function and the estimated maximum particle dimension, Dmax (Fig. 3). […] The Dmax of unmod-NCD (79 Å) and phos-NCD (94 Å) was larger than that of the CD (56 Å). The extended tail of the P(r) function and larger Dmax for unmod-NCD and phos-NCD is due to scattering from the N-terminal tail region in each case.
SAXS measurements were performed at 20 °C with a MicroMax007HF X-ray generator (Rigaku). A PILATUS100K detector (DECTRIS) at a distance of 561 mm from the sample was used to measure scattering intensities. Each sample solution was transferred to a quartz-window cell with a 1 mm path length. Circular averaging of the scattering intensities was carried out to obtain one-dimensional scattering data I(q) as a function of q (q = 4πsinθ/λ, where 2θ is the scattering angle and λ is the X-ray wavelength 1.5418 Å). To correct for interparticle interference, I(q) data were collected at three different protein concentrations (5, 10, and 15 mg/ml in 50 mM KPB (pH 6.8), 500 mM NaCl, and 5 mM DTT.). The total exposure times were 6 hours for 5 mg/ml, and 3 hours for both 10mg/ml and 15mg/ml. […] To estimate the molecular weight of samples, I(q) data were collected for hen egg white lysozyme (5.2 mg/ml in 50 mM KPB (pH 6.8), 500 mM NaCl). The data were processed by using the software applications embedded in the ATSAS package [ http://www.embl-hamburg.de/biosaxs/software.html]. The radius of gyration Rg and forward scattering intensity I(0) were estimated from the Guinier plot[35] of I(q) in the smaller angle region of qRg < 1.3. The distance distribution function P(r) was calculated in the program GNOM[36], where the experimental I(q) data were used in a q-range from 0.031 to 0.250 Å^−1. The maximum particle dimension Dmax was estimated from the P(r) function as the distance r for which P(r) = 0[35]. The I(q) and Rg of 20 models corresponding to the NMR structures were calculated by using the program CRYSOL[37] and averaged. The molecular weight of the sample was estimated by comparing I(0)/c (where c is the protein concentration) of the sample to that of lysozyme.

[3] = HSQC dilution check for dimer or multimer association; format: physicochemical; conditions: 10-fold diluted samples
From the text: It might be possible that the differences in chemical shift observed between unmod-NCD and phos-NCD originate from different dimer or multimer associations due to their N-terminal tails.

[4] = VP-ITC, protein 40 μM in cell, titrated with 400 μM H3K9me peptide, one-site binding model
[5] = 5 mg/ml, exposure 1 h x6, 50 mM KPB (pH 6.8), 500 mM NaCl, 5 mM DTT, 20 °C
[6] = 10 mg/ml, exposure 1 h x3, pH 6.8, 20 °C
[7] = 15 mg/ml, exposure 1 h x3, pH 6.8, 20 °C

In the case of “NCD^Δ1–4: N-terminal deletion mutant, amino acids 5–80 of HP1α”, the “ΔS (entropy change)” value [1] is reported as 7.75 cal/mol/K, the Ka [1] is reported as 1.31e+06 ± 50700 M⁻¹ and the “ΔH (enthalpy change)” value [1] is reported as -5.933 ± 0.02294 kcal/mol. The Kd [1, 4] was 760 nM and the “fold weaker binding to H3K9me as compared with NCD^Δ1–9” value [1] was “about 4 -fold”.

With “NCD^Δ1–9: N-terminal deletion mutant, amino acid 10–80 of HP1α” the “ΔS (entropy change)” value [1] was 5.66 cal/mol/K, the Ka [1] was 6.04e+06 ± 255000 M⁻¹ and the “ΔH (enthalpy change)” value [1] was -7.435 ± 0.01679 kcal/mol. The Kd [1, 4] was 160 nM and the “fold stronger binding to H3K9me than the CD alone” value (shortened to “fold stronger binding”) [1] was “about 83 -fold”.

In the case of “NCD^Δ1–14: acidic segment plus CD, amino acids 15–80 of HP1α”, the “ΔS (entropy change)” value [1] is reported as 1.13 cal/mol/K, the Ka [1] is reported as 397000 ± 40700 M⁻¹ and the “ΔH (enthalpy change)” value [1] is reported as -7.178 ± 0.1141 kcal/mol. For the same substance, the Kd [1, 4] was 2520 nM and the “fold stronger binding” value [1] was “about 5 -fold”.

For “NCD^Δ1–19: CD domain alone, amino acids 20–80 of HP1α”, the “ΔS (entropy change)” value [1] was -13.0 cal/mol/K, the Ka [1] was 75000 ± 2300 M⁻¹ and the “ΔH (enthalpy change)” value [1] was -1.036E4±103.0 cal/mol. For the same substance, the Kd [1, 4] was 13300 nM, the “association state, in words” value [2] was “monomer” and the “Rg (radius of gyration)” value [2, 5] was 14.0 ± 0.3 Å. The “Estimated molecular weight (association state)” value (shortened to “Estimated molecular weight”) ([2]; 5 mg/ml) was 6.6 kDa, the “Dmax (maximum particle dimension)” value ([2]; 5 mg/ml) was 56 Å and the “Rg (radius of gyration)” value [2, 6] was 13.8 ± 0.3 Å. The “Estimated molecular weight” value ([2]; 10 mg/ml) was 6.0 kDa, the “Rg (radius of gyration)” value [2, 7] was 13.7 ± 0.2 Å and the “Estimated molecular weight” value ([2]; 15 mg/ml) was 6.1 kDa.

For “phos-NCD: chromodomain with phosphorylated N-terminal tail, amino acids 1–80 of HP1α, co-expressed with casein kinase II”, the “ΔS (entropy change)” value [1] was 2.23 cal/mol/K, the Ka [1] was 5.87e+06 ± 521000 M⁻¹ and the “ΔH (enthalpy change)” value [1] was -8.424 ± 0.044 kcal/mol. The Kd [1, 4] was 170 nM, the “times more strongly bound H3K9me than the CD” value [1] was “about 80 times” and the “fold stronger affinity for H3K9me than unmod-NCD” value ([1]; relative to unmod-NCD) was “approximately 10 -fold”. The “association state, in words” value [2] was “monomer”, the “Rg (radius of gyration)” value [2, 5] was 18.9 ± 0.4 Å and the “Estimated molecular weight” value ([2]; 5 mg/ml) was 11.7 kDa. The “Dmax (maximum particle dimension)” value ([2]; 5 mg/ml) was 94 Å, the “Rg (radius of gyration)” value [2, 6] was 19.4 ± 0.4 Å and the “Estimated molecular weight” value ([2]; 10 mg/ml) was 11.7 kDa. The “Rg (radius of gyration)” value [2, 7] was 19.8 ± 0.3 Å, the “Estimated molecular weight” value ([2]; 15 mg/ml) was 11.9 kDa and the “HSQC signal changes upon dilution” value [3] was “no significant signal changes were observed”.

In the case of “phos-NCD^Δ1–4: NCD^Δ1–4 (amino acids 5–80) with phosphorylated serine residues”, the “binding to H3K9me relative to un-phosphorylated NCD^Δ1–9, in words” value [1] is reported as “recovered to a value similar to that of un-phosphorylated NCD^Δ1–9”, the “ΔS (entropy change)” value [1] is reported as 1.14 cal/mol/K and the Ka [1] is reported as 2.61e+06 ± 236000 M⁻¹. The “ΔH (enthalpy change)” value [1] was -8.271 ± 0.05999 kcal/mol and the Kd [1, 4] was 380 nM.

For “phos-NCD^Δ1–9: phosphorylated NCD^Δ1–9 form, amino acids 10–80 of HP1α”, the Kd ([1]; value in nM) was 40 nM, the “ΔS (entropy change)” value [1] was 12.6 cal/mol/K and the Ka [1] was 2.58e+07 ± 5.24e+06 M⁻¹. The “ΔH (enthalpy change)” value [1] was -6.233 ± 0.04246 kcal/mol, the “times more strongly bound H3K9me than the CD” value [1] was “more than 300 times” and the “fold stronger binding” value [1] was “about 330 -fold”.

For “unmod-NCD: chromodomain with un-phosphorylated N-terminal tail, amino acids 1–80 of HP1α”, the “ΔS (entropy change)” value [1] was 3.16 cal/mol/K, the Ka [1] was 564000 ± 25900 M⁻¹ and the “ΔH (enthalpy change)” value [1] was -6.79 ± 0.04533 kcal/mol. For the same substance, the Kd [1, 4] was 1770 nM, the “fold weaker binding to H3K9me as compared with NCD^Δ1–9” value [1] was 6 -fold and the “association state, in words” value [2] was “monomer”. The “Rg (radius of gyration)” value [2, 5] was 17.2 ± 0.4 Å, the “Estimated molecular weight” value ([2]; 5 mg/ml) was 8.8 kDa and the “Dmax (maximum particle dimension)” value ([2]; 5 mg/ml) was 79 Å. For the same substance, the “Rg (radius of gyration)” value [2, 6] was 17.0 ± 0.3 Å, the “Estimated molecular weight” value ([2]; 10 mg/ml) was 8.5 kDa and the “Rg (radius of gyration)” value [2, 7] was 17.4 ± 0.3 Å. The “Estimated molecular weight” value ([2]; 15 mg/ml) was 8.8 kDa and the “HSQC signal changes upon dilution” value [3] was “no significant signal changes were observed”.
